The data set relates to GENE-TOX genotoxicity assays, various organisms and cells. Nature of the data set: GENE-TOX mutagenicity studies. To be noted: for call: Assay Type: In vivo carcinogenicity studies.
The mark [1] stands for this setting: Species/Cell Type: Drosophila melanogaster, Assay Type: Sex-linked recessive lethal gene mutation, Assay Code: SRLT, Evaluation Type: Evaluation A (Pre-1980).
[2] abbreviates: Species/Cell Type: Escherichia coli polA (W3119 vs P3478), Assay Type: Rec-assay, DNA effects (bacterial DNA repair), Assay Code: RE1T, Evaluation Type: Evaluation A (Pre-1980).
[3] abbreviates: Species/Cell Type: Saccharomyces cerevisiae, Assay Type: Mitotic recombination or gene conversion, Assay Code: YEH-, Evaluation Type: Evaluation A (Pre-1980).
Where [4] appears, read: Species/Cell Type: Salmonella typhimurium (one or more of the five standard strains: TA98, TA100, TA1535, TA1537, and TA1538), Assay Type: Histidine reverse gene mutation, Ames assay, Assay Code: SAL-, Evaluation Type: Evaluation A (Pre-1980).
The mark [5] stands for this setting: Species/Cell Type: Salmonella typhimurium (one or more of the five standard strains: TA98, TA100, TA1535, TA1537, and TA1538), Assay Type: Histidine reverse gene mutation, Ames assay, Assay Code: SAL+*, Activation: With metabolic activation, Evaluation Type: Evaluation A (Pre-1980).
Setting [6] is: Species/Cell Type: Nonhuman, Assay Code: CCG+, Evaluation Type: Evaluation A (Pre-1980).
Setting [7] is: Species/Cell Type: Drosophila melanogaster, Assay Type: Sex-linked recessive lethal gene mutation, Assay Code: SRL+, Evaluation Type: Evaluation A (Pre-1980).
Where [8] appears, read: Species/Cell Type: Nonhuman, Assay Type: Sister-chromatid exchange (SCE) in vivo, Assay Code: SC3+, Evaluation Type: Evaluation B (Post-1980).
Setting [9] is: Species/Cell Type: Escherichia coli polA (W3119 vs P3478), Assay Type: Rec-assay, DNA effects (bacterial DNA repair), Assay Code: RE1+, Evaluation Type: Evaluation A (Pre-1980).
Where [10] appears, read: Species/Cell Type: Salmonella typhimurium (one or more of the five standard strains: TA98, TA100, TA1535, TA1537, and TA1538), Assay Type: Histidine reverse gene mutation, Ames assay, Assay Code: SAL+, Evaluation Type: Evaluation A (Pre-1980).
Setting [11] is: Species/Cell Type: Mammalian polychromatic erythrocytes, Assay Type: Micronucleus test, chromosome aberrations, Assay Code: MNT+, Evaluation Type: Evaluation B (Post-1980).
[12] abbreviates: Species/Cell Type: Salmonella typhimurium (one or more of the five standard strains: TA98, TA100, TA1535, TA1537, and TA1538), Assay Type: Histidine reverse gene mutation, Ames assay, Assay Code: SALT, Evaluation Type: Evaluation A (Pre-1980).

The source made the active and inactive calls. How the calls were made is not given here.

Turning to `ClC(Cl)=C(c1ccc(Cl)cc1)c1ccc(Cl)cc1`, the mutagenic call is “active; positive” (Species/Cell Type: Chinese hamster lung (V79) cells, Assay Type: Forward gene mutation at the HPRT or ouabain locus, Assay Code: V79+, Evaluation Type: Evaluation A (Pre-1980)); “no conclusion” under setting [1]; “no conclusion” under setting [2]; “inactive; positive without activation, negative with activation” (Species/Cell Type: Mouse lymphoma (L5178Y) cells, Assay Type: Forward gene mutation at the thymidine kinase (TK) locus, chromosome aberrations, Assay Code: L51+/-*, Activation: With metabolic activation, Evaluation Type: Evaluation A (Pre-1980)); “active; positive” (Species/Cell Type: Nonhuman, Assay Type: Chromosome aberrations in vitro, Assay Code: CY&+, Evaluation Type: Evaluation A (Pre-1980)); “inactive; negative” under setting [3]. The mutagenic call was “inactive; negative” under setting [4]; “inactive; negative” (Species/Cell Type: Salmonella typhimurium, Serratia marcesens, Assay Type: Forward and reverse gene mutation, host-mediated assay, Assay Code: HM2-, Evaluation Type: Evaluation A (Pre-1980)). Besides, under “Species/Cell Type: Nonhuman, Assay Code: CCG+L, Evaluation Type: Evaluation A (Pre-1980)”, the call was “active; positive”.
As for `Cc1ccnc2ccccc12`, the mutagenic call under setting [5] was “active; positive”.
Consider `Cc1cc2ccccc2c2ccc3c(c12)CCC3=O`, for which, under setting [5], the mutagenic call is “active; positive”.
Turning to `CC(CN1CC(=O)NC(=O)C1)N1CC(=O)NC(=O)C1` (stereo unspecified), under setting [4], the mutagenic call is “inactive; negative”.
`Nc1ccc(Cl)cc1N`: under setting [6], the call was “active; positive”.
Regarding `CC1CN1P(=O)(N(C)C)N(C)C` (stereo unspecified), the mutagenic call under setting [7] was “active; positive”.
As for `Cc1cc(C(=O)NNCc2ccccc2)no1`, the mutagenic call under setting [8] is “active; positive”.
On to `BrC(Br)C(Br)Br`, for which, under setting [9], the mutagenic call was “active; positive”.
With `Oc1ccc(Cl)c(O)c1`, the mutagenic call (Species/Cell Type: Mammalian polychromatic erythrocytes, Assay Type: Micronucleus test, chromosome aberrations, Assay Code: MNTT, Evaluation Type: Evaluation A (Pre-1980)) is “no conclusion” and the mutagenic call (Species/Cell Type: Neurospora crassa, Assay Type: Aneuploidy, chromosome aberrations, Assay Code: NEN-, Evaluation Type: Evaluation A (Pre-1980)) is “inactive; negative”.
On to `Nc1ccc(Cl)cc1`, for which the mutagenic call is, setting by setting: under setting [9], “active; positive”; under setting [3], “inactive; negative”; (Species/Cell Type: Syrian hamster embryo (SHE) cells, Assay Type: Cell transformation, clonal assay, Assay Code: CTC+, Evaluation Type: Evaluation A (Pre-1980)) “active; positive”.
For the compound `CN1CCN(c2ccc([N+](=O)[O-])c3no[n+]([O-])c23)CC1`, the mutagenic call under setting [10] is “active; positive”.
For `O=c1cc[nH]c2ccccc12`, the mutagenic call under setting [4] was “inactive; negative”.
As to `CCCCOc1ccc2nc3cc(Cl)ccc3c(NCCCN(CC)CCCl)c2n1`, the mutagenic call (Species/Cell Type: Chinese hamster ovary (CHO) cells, Assay Type: Forward gene mutation at the HPRT locus, Assay Code: CHO+, Evaluation Type: Evaluation B (Post-1980)) is “active; positive”.
Regarding `O=Nc1c([O-])ccc2cc(S(=O)(=O)[O-])ccc12.O=Nc1c([O-])ccc2cc(S(=O)(=O)[O-])ccc12.O=Nc1c([O-])ccc2cc(S(=O)(=O)[O-])ccc12.[Fe+3].[Na+].[Na+].[Na+]`, the mutagenic call (Species/Cell Type: Bacillus subtilis (H17 vs M45), Assay Type: Rec-assay, spot test, DNA effects (bacterial DNA repair), Assay Code: REWT, Evaluation Type: Evaluation A (Pre-1980)) was “no conclusion”.
For `O=S1(=O)OC2(c3ccccc31)c1cc(Br)c(O)c(Br)c1Oc1c2cc(Br)c(O)c1Br`, under setting [10], the mutagenic call was “active; positive”.
In the case of `O=C(CCl)CCl`, the mutagenic call reads like this: under setting [1], “no conclusion”; under setting [10], “active; positive”.
Regarding `Cc1cccc(N=Nc2ccc(N(C)C)cc2)c1`, the mutagenic call reads like this: under setting [1], “no conclusion”; (Species/Cell Type: Escherichia coli polA (W3110 vs P3478), Assay Type: Rec-assay, DNA effects (bacterial DNA repair), Assay Code: RE2-, Evaluation Type: Evaluation A (Pre-1980)) “inactive; negative”; under setting [2], “no conclusion”; (Species/Cell Type: Fischer rat embryo (RLV/1706) cells, Assay Type: Cell transformation, viral enhanced, Assay Code: CTR+, Evaluation Type: Evaluation A (Pre-1980)) “active; positive”; (Species/Cell Type: Human diploid fibroblasts, Assay Type: Unscheduled DNA synthesis (UDS) in vitro, DNA effects, Assay Code: UDH-, Evaluation Type: Evaluation A (Pre-1980)) “inactive; negative”; (Species/Cell Type: Mouse embryo (AKR/ME) cells, Assay Type: Cell transformation, Assay Code: CTK-, Evaluation Type: Evaluation A (Pre-1980)) “inactive; negative”. Further, the mutagenic call is, setting by setting: (Species/Cell Type: Neurospora crassa, Assay Type: Forward gene mutation, Assay Code: NEF+, Evaluation Type: Evaluation A (Pre-1980)) “active; positive”; (Species/Cell Type: Nonhuman, Assay Type: Sister-chromatid exchange (SCE) in vitro, Assay Code: SC2+D, Dose Response: With dose response, Evaluation Type: Evaluation B (Post-1980)) “active; positive”; under setting [8], “active; positive”; (Species/Cell Type: Rat primary hepatocytes, Assay Type: Unscheduled DNA synthesis (UDS) in vitro, DNA effects, Assay Code: UDP+D, Dose Response: With dose response, Evaluation Type: Evaluation A (Pre-1980)) “active; positive”; (Species/Cell Type: Saccharomyces cerevisiae, Assay Type: Mitotic recombination or gene conversion, Assay Code: YEH+*, Activation: With metabolic activation, Evaluation Type: Evaluation A (Pre-1980)) “active; positive”; (Species/Cell Type: Salmonella typhimurium, Assay Type: Forward and reverse gene mutation, host-mediated assay, Assay Code: HMA-, Evaluation Type: Evaluation A (Pre-1980)) “inactive; negative”. Where the note is “Species/Cell Type: Syrian hamster embryo (SHE) cells, Assay Type: Cell transformation, clonal assay, Assay Code: CTCT, Evaluation Type: Evaluation A (Pre-1980)”, the mutagenic call is “no conclusion”. The call under setting [6] was “active; positive”.
Regarding `C=CC(=O)OCC`, the mutagenic call under setting [11] was “active; positive”.
As to `C[n+]1c2cc(N)ccc2cc2ccc(N)cc21` (tested in a mixture with another compound), the mutagenic call (Species/Cell Type: Aspergillus nidulans, Assay Type: Forward gene mutation, Assay Code: ASF+, Evaluation Type: Evaluation A (Pre-1980)) was “active; positive”; the mutagenic call (Species/Cell Type: Mammalian cell culture, nonhuman, Assay Type: Micronucleus test in vitro, chromosome aberrations, Assay Code: MN&+U, Dose Response: Unconfirmed positive response, Evaluation Type: Evaluation A (Pre-1980)) is “active; positive”; the mutagenic call (Species/Cell Type: Mammalian oocytes or early embryo, Assay Type: Chromosome aberrations in vivo, Assay Code: CYO-, Evaluation Type: Evaluation A (Pre-1980)) was “inactive; negative”; the mutagenic call (Species/Cell Type: Mammalian polychromatic erythrocytes, Assay Type: Micronucleus test, chromosome aberrations, Assay Code: MNT+U, Dose Response: Unconfirmed positive response, Evaluation Type: Evaluation A (Pre-1980)) is “active; positive”; the mutagenic call (Species/Cell Type: Mouse, Sex: Male, Assay Type: Sperm morphology, Assay Code: SPI+, Evaluation Type: Evaluation A (Pre-1980)) is “active; positive”; the mutagenic call (Species/Cell Type: Saccharomyces cerevisiae, Assay Type: Mitotic recombination or gene conversion, Assay Code: YECT, Evaluation Type: Evaluation A (Pre-1980)) is “no conclusion”. The mutagenic call by setting is: (Species/Cell Type: Saccharomyces cerevisiae, Assay Type: Mitotic recombination or gene conversion, Assay Code: YEH+, Evaluation Type: Evaluation A (Pre-1980)) “active; positive”; (Species/Cell Type: Salmonella typhimurium, Escherichia coli, Serratia marcesens, Assay Type: Forward and reverse gene mutation, host-mediated assay, Assay Code: HMN-, Evaluation Type: Evaluation A (Pre-1980)) “inactive; negative”.
For `CNC(=O)ON=CC(C)(C)SC`, the mutagenic call reads like this: (Species/Cell Type: Human lymphocytes, Assay Type: Sister-chromatid exchange (SCE) in vitro, Assay Code: SCL+D, Dose Response: With dose response, Evaluation Type: Evaluation B (Post-1980)) “active; positive”; (Species/Cell Type: Human, Assay Type: Sister-chromatid exchange (SCE) in vitro, Assay Code: SC1+D, Dose Response: With dose response, Evaluation Type: Evaluation B (Post-1980)) “active; positive”. The call (Species/Cell Type: Nonhuman, Assay Code: CCG-, Evaluation Type: Evaluation A (Pre-1980)) is “inactive; negative”.
With `[O-][Br+2]([O-])O`, the mutagenic call under setting [11] is “active; positive”.
For the compound `Cc1cnc2ccccc2c1`, the mutagenic call under setting [5] is “active; positive”.
In the case of `Cc1cccc2c1ccc1c3c(ccc12)C(=O)CC3`, the mutagenic call under setting [12] was “no conclusion”.
With `COc1ccc(N=NN(C)C)cc1`, the mutagenic call is, setting by setting: under setting [7], “active; positive”; (Species/Cell Type: Saccharomyces cerevisiae, Assay Type: Mitotic recombination or gene conversion, Assay Code: YEC+, Evaluation Type: Evaluation A (Pre-1980)) “active; positive”.
With `C#CC(O)(c1ccccc1)c1ccccc1`, the mutagenic call under setting [12] is given as “no conclusion”.
For the compound `O=C1c2ccccc2C(=O)c2c1ccc(OCCCS(=O)(=O)O)c2O`, under setting [5], the mutagenic call is “active; positive”.

Source of the values: PubChem BioAssay AID1259408 (Genetic Toxicology Data Bank (GENE-TOX), 2018).
